# Data from patent US20030113819A1, “Carrier peptide and method for delivery of molecules into cells” (priority 2002, published 2003).
# “Also recorded” adds a separate entry of the source. No end group written: not given here. Cy5Q = quencher
# Tests used:
# [1] = test system: SK-OV-NTR cells (SK-OV-3 stably transfected with bacterial NTR genes); assay: Nitroreductase assay, delivery of nitroreductase reporter, transfected cells; format: cell-based, Human; conditions: 10 μM, 5 hour incubation
# Excerpt: (§1) As disclosed in PCT/GB99/01746, the fluorescence properties of cyanine dyes may be modified by substitution of the dye with nitro, and/or dinitrobenzyl groups, which have the effect of reducing or abolishing the fluorescence from the molecule. An example of such a quenching or “dark” dye is Cy5Q (Amersham Pharmacia Biotech). In the presence of the enzyme, nitroreductase (NTR), a nitro-group substituent of Cy5Q may be converted to an amino-group, with the result that there is an increase in the fluorescence intensity of the dye. This may be used as the basis for an assay for the measurement of intracellular nitroreductase. In this example, Cy5Q is conjugated to a carrier peptide and is used as an indicator of nitroreductase (NTR) in whole, living cells.
# (§2) The assay may be carried out using cells transfected with DNA encoding the gene for bacterial NTR, such that when the Cy5Q conjugate is introduced into such a transfected cell line, an increase in fluorescence is measured. […]
# (§3) Cy5Q chemically linked to the carrier peptide Ac-Ala-Pro-Thr-Arg-Val-Leu-Pro-Pro-Leu-Val-Ala-Gly-Gly-Lys-amide was incubated with cells (30,000 cells/well) (1-5 hours, 5% CO2, 37° C., 95% humidity), cells washed (×3) with PBS and fluorescence measured from below, using a CytoFluor multi-well plate reader (Applied Biosystems), (activating at 610 nm, emission 670 nm). […]
# parental SK-OV cells = assay: Nitroreductase assay, delivery of nitroreductase reporter, non-transfected cells; format: cell-based, Human; conditions: 10 μM, parental cell lines, FIG. 9
# Excerpt: as §1, §2, §3
# NIH 3T3 = assay: Selective permeabilisation with digitonin (cytosolic vs organelle fraction fluorescence); format: cell-based, Mouse; conditions: 60 min incubation, 20 μM digitonin 3 min, FIG. 8
# Description: Mouse fibroblasts (NIH 3T3) were cultured at 1×10^6 cells/ml in DMEM (see above) on 24-well tissue culture plates (Costar Inc.). Cells were incubated with Cy3- labelled carrier peptides (H2N-Ala-Pro-Thr-Arg-Val-Pro-Leu-Pro-Leu-Pro-Val-Gly-Gly-Lys-OH (SEQ ID No.4); H2N-Ala-Pro-Thr-Arg-Ala-Val-Leu-Pro-Leu-Ala-Val-Gly-Gly-Lys-OH (SEQ ID No.5); H2N-Ala-Pro-Thr-Arg-Val-Leu-Pro-Pro-Leu-Val-Ala-Gly-Gly-Lys-OH (SEQ ID No.6); H2N-Ala-Pro-Thr-Arg-Val-Leu-Leu-Pro-Leu-Leu-Val-Gly-Gly-Lys-OH (SEQ ID No.7) for 60 minutes (5% CO2, 37° C., 95% humidity). Cells were washed (×4) with PBS, before addition of 20 μM digitonin for 3 minutes. Cells were rapidly centrifuged (10,000×g, for 5 minutes) to separate into supernatant (cytosolic) and pellet (organelle) fractions. The fluorescence activity was then measured using a CytoFluor multi-well plate reader (activating at 530 nm, emission 590 nm). Unlabelled cells (cells without dye), unlabelled Cy3 (unlinked dye) (Amersham Pharmacia Biotech), and, untreated cells (unpermeabilised cells without digitonin), were used as controls. […] Cytosolic preparations were confirmed using an assay for cytoplasmic lactic dehydrogenase (LDH) in the presence of PNADH (Wroblewski & LaDue, Proc. Soc. Exp. Biol. Med. 1955, (90), 210-213.
# NIH 3T3 cells [2] = assay: Cellular uptake of Cy3 linked to carrier peptide (plate reader, fluorescence and confocal microscopy); format: cell-based, Mouse
# Description: Mouse fibroblasts (NIH 3T3) or human ovary adenocarcinoma (SK-OV) cells were cultured in Dulbecco's modified Eagle's medium (DMEM) supplemented with 10% (v/v) foetal calf serum (FCS), 4 mM L-glutamine, 100 U/ml penicillin and 100 μg/ml streptomycin. NIH 3T3 cells were grown on 96-well tissue culture plates (Costar Inc.) or WillCo-dishes (glass-bottomed dishes, with 0.17 mm cover glass for inverted microscopes) (WillCo), before treatment with carrier peptide. Cells were incubated (60 min, 5% CO2, 37° C., 95% humidity) with Cy3 linked to carrier peptide (H2N-Ala-Pro-Thr-Arg-Val-Leu-Pro-Pro-Leu-Val-Ala-Gly-Gly-Lys-OH) (SEQ ID No.6)) (range 1-100 μM). After incubation, the culture supernatant was decanted and the cells were washed. Cy3 (unlinked dye) (Amersham Pharmacia Biotech) was used as a control. Cellular fluorescence was detected using a CytoFluor multi-well plate reader (Applied Biosystems, Foster City, Calif., USA), (activating at 530 nm, emission 590 nm) (FIG. 1); a Nikon-Diaphot 300 fluorescence microscope, (activating at 490 nm, emission at 520 nm); and a Zeiss Microsystems confocal laser scanning microscope (LSM4) (activating at 515 nm, emission at 565 nm) (FIGS. 2 (a) and (b)). Cells were further studied for intracellular dye localization by a twenty-step Z-position sectional scanning of the cell (0.5 μm/section) using a 40× oil immersion lens (FIG. 3). […]
# NIH 3T3 cells [3] = assay: Flow cytometry of cells incubated with Cy3 linked to carrier peptide; format: cell-based, Mouse; conditions: 1 μM, 60 min
# Description: Mouse fibroblasts (NIH 3T3 cells) were cultured in DMEM (see above) on 24-well tissue culture plates (Costar Inc.). Cells were incubated (60 min, 5% CO2, 37° C., 95% humidity) with Cy3 (1 μM) linked to carrier peptide (H2N-Ala-Pro-Thr-Arg-Val-Leu-Pro-Pro-Leu-Val-Ala-Gly-Gly-Lys-OH (SEQ ID No.6)). After incubation, the culture supernatant was decanted and the cells washed. Cells were trypsinised (0.25% w/v, 5 min) and re-suspended in PBS, before analysis by flow cytometry (see below). Untreated cells and Cy3 only (unlinked dye) (Amersham Pharmacia Biotech) were used as controls.
# All samples were analyzed on a FACSCalibur Flow Cytometry System (Becton Dickinson, San Jose, Calif., USA) with CellQuest software. The instrument is equipped with a 488 nm argon-ion laser and 5 detection parameters. There are 2 scatter detectors, known as forward scatter (FSC) and side scatter (SSC) which provide information about cellular size and internal complexity, respectively. In addition, there are three relative fluorescence intensity detectors. Cy3 labelling was monitored with the second fluorescence detector (FL2) fitted with a 585/42 nm filter. […]
# Histogram markers were set so that only 2-3% of the recorded events were past the FL2 channel marker 30 for the dye only control.
# NIH 3T3 cells [4] = assay: Cellular delivery of nuclear localization sequence (confocal microscopy); format: cell-based, Mouse; conditions: overnight incubation, FIG. 10
# Description: NIH 3T3 cells were cultured (see above) on WillCo-dishes (glass-bottomed dishes, with 0.17 mm cover glass for inverted microscopes) (WillCo), before treatment with carrier peptide linked to the nuclear localization sequence. Confluent NIH 3T3 cells were incubated (overnight, 5% CO2, 37° C., 95% humidity) in the presence of Cy3-[…]amide, before washing (×3) with PBS, and visualization using a Zeiss Microsystems confocal laser scanning microscope (LSM4) (activating at 515 nm, emission at 565 nm). Controls included Cy3 linked to carrier peptide (Cy3-Ala-Pro-Thr-Arg-Val-Leu-Pro-Pro-Leu-Val-Ala-Gly-Gly-Lys-OH), and unlabelled Cy3 (unlinked dye) (Amersham Pharmacia Biotech).
substance,measurement,setting,value
Ac-Ala-Pro-Thr-Arg-Val-Leu-Pro-Pro-Leu-Val-Ala-Gly-Gly-Lys(Cy5Q)-amide (Ac-APTRVLPPLVAGGK(Cy5Q)-NH2) [carrier peptide linked to Cy5Q],cellular uptake and substrate conversion (Cy5Q fluorescence),[1]; FIG. 9,significant cellular internalization and substrate conversion
same,cellular uptake and substrate conversion (Cy5Q fluorescence),"[1]; FIG. 9, listed as delivery peptide linked to Cy5Q",significant cellular uptake and substrate conversion
same,substrate conversion (Cy5Q fluorescence),parental SK-OV cells,Little conversion
"Cy3 linked to carrier peptide (SEQ ID No.4): Cy3 dye linked through NHS ester to carrier peptide H2N-Ala-Pro-Thr-Arg-Val-Pro-Leu-Pro-Leu-Pro-Val-Gly-Gly-Lys-OH (APTRVPLPLPVGGK-OH; also: Cy3 dye linked through NHS ester, site not given here)",delivered dye in the cytosol (supernatant fraction after digitonin),NIH 3T3,significant amount of delivered agent in the cytosol; also recorded: significant amount of delivered dye into the cytosol
"Cy3 linked to carrier peptide (SEQ ID No.5): Cy3 dye linked through NHS ester to carrier peptide H2N-Ala-Pro-Thr-Arg-Ala-Val-Leu-Pro-Leu-Ala-Val-Gly-Gly-Lys-OH (APTRAVLPLAVGGK-OH; also: Cy3 dye linked through NHS ester, site not given here)",delivered dye in the cytosol (supernatant fraction after digitonin),NIH 3T3,significant amount of delivered agent in the cytosol; also recorded: significant amount of delivered dye into the cytosol
"Cy3 linked to carrier peptide (SEQ ID No.7): Cy3 dye linked through NHS ester to carrier peptide H2N-Ala-Pro-Thr-Arg-Val-Leu-Leu-Pro-Leu-Leu-Val-Gly-Gly-Lys-OH (APTRVLLPLLVGGK-OH; also: Cy3 dye linked through NHS ester, site not given here)",delivered dye in the cytosol (supernatant fraction after digitonin),NIH 3T3,significant amount of delivered agent in the cytosol; also recorded: significant amount of delivered dye into the cytosol
Cy3-Ala-Pro-Thr-Arg-Val-Leu-Pro-Pro-Leu-Val-Ala-Gly-Gly-Lys-OH (Cy3-APTRVLPPLVAGGK-OH),intracellular dye localization by twenty-step Z-position sectional scanning,"NIH 3T3 cells [2]; confocal, 0.5 μm/section, FIG. 3","dye staining in the central portion of the cell, and little staining on the periphery or cell membrane"
same,uptake of Cy3 into NIH 3T3 cells (cellular fluorescence),"NIH 3T3 cells [2]; range 1-100 μM, 60 min, CytoFluor plate reader, FIG. 1",dose-dependent uptake
same,delivered dye in the cytosol (supernatant fraction after digitonin),NIH 3T3,significant amount of delivered agent in the cytosol; also recorded: significant amount of delivered dye into the cytosol
same,uptake of Cy3 across the cell population (dot plots),NIH 3T3 cells [3]; FIG. 5,homogeneous uptake
same,increase in fluorescence geometric mean between dye control and test cells,"NIH 3T3 cells [3]; FL2 histogram, FIG. 6",approximately 5 fold
Cy3-Ser-Ser-Asp-Asp-Glu-Ala-Thr-Ala-Ser-Asp-Gln-His-Ser-Thr-Pro-Pro-Lys-Lys-Lys-Arg-Lys-Val-Glu-Asp-Pro-Lys-Ala-Pro-Thr-Arg-Val-Leu-Pro-Pro-Leu-Val-Ala-Gly-Gly-Lys-amide,nuclear staining compared with the controls,NIH 3T3 cells [4],more pronounced nuclear staining
